From patent publication US20160318987A1 (MEDIMMUNE LIMITED, priority 2013, published 2016)
*1 amine or outer side, *2 acyl side, *3 side chain or, on linkers, in order; H or OH if unused. Where a SMILES comes first, the peptide text is derived from it. Side-chain parts run from the residue outwards. [ ]: non-standard residue; d: D form. The star is where a group is joined. X1 = CC(C)(c1ccccc1)[C@H](N[*:1])C(=O)[*:2]; γGlu = O=C(O)[C@H](CCC(=O)[*:2])N[*:1]; Palmitoyl = CCCCCCCCCCCCCCCC(=O)*; αMeF = C[C@](N)(Cc1ccccc1)C(=O)O; αMeK = C[C@](N)(CCCCN)C(=O)O; Aib = CC(C)(N)C(=O)O

Tests used:
Type in all cases: cell-based
Conditions in all cases: n = 2
hGLP-1R = molecular target: T1, hGLP-1R (Homo sapiens, UniProt P43220); experiment: cAMP functional assay, cells expressing human GLP-1 receptor (primary assay)
T1 construct: expressed in transfected cells
T1 sequence (P43220 24-463): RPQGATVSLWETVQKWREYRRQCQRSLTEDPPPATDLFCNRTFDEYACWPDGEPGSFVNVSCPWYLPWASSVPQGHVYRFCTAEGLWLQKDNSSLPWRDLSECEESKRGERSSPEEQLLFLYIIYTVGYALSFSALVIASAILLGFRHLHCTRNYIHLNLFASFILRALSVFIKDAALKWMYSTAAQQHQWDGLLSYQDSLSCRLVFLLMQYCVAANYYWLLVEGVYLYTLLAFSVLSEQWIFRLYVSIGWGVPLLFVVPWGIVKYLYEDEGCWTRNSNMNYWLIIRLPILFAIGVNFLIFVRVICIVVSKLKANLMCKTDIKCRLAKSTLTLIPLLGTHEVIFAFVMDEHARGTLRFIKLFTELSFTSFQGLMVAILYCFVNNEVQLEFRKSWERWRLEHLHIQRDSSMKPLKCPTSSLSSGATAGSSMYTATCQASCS

hGIP-R = molecular target: T2, hGIP-R (Homo sapiens, UniProt P48546); experiment: cAMP functional assay, cells expressing human GIP receptor (primary assay)
T2 construct: expressed in transfected cells
T2 sequence (P48546 22-466): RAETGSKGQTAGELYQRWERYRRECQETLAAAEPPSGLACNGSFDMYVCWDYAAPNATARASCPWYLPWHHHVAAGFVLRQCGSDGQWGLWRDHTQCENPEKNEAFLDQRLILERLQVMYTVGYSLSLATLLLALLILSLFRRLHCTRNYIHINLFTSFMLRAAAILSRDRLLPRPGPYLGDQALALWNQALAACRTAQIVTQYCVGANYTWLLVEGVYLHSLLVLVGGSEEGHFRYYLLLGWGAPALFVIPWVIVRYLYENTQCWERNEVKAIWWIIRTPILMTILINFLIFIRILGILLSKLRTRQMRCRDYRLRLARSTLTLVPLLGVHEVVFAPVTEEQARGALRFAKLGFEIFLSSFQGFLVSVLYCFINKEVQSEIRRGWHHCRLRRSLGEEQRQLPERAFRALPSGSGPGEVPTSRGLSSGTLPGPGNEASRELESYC

hGluc-R = molecular target: T3, hGluc-R (Homo sapiens, UniProt P47871); experiment: cAMP functional assay, cells expressing human glucagon receptor (primary assay)
T3 construct: expressed in transfected cells
T3 sequence (P47871 26-477): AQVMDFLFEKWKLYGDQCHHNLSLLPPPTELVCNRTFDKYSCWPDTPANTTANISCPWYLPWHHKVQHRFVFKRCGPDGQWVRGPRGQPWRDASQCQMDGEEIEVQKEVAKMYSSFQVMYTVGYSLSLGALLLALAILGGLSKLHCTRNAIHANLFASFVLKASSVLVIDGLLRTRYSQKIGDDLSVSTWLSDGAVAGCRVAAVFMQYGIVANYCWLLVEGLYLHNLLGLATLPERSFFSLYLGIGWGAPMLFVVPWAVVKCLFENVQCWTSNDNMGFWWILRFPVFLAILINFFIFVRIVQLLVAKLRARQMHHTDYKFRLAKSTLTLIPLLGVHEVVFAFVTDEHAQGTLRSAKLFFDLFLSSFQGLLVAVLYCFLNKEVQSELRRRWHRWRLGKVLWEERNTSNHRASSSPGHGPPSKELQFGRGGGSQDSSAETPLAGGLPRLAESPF
Experimental: The biological activities/receptor potencies of the synthetic GLP-1 peptides described herein are suitably tested for biological activity, e.g., stimulation of one or more cellular receptor responses. Stable cell lines expressing human, mouse, rat, or dog GLP-1 receptor (GLP-1R), glucagon receptor (GCGR) or glucose-dependent insulinotropic peptide (gastric inhibitory polypeptide) receptor (GIPR) are generated in HEK293 cells or CHO cells by standard methods.
cAMP assays were performed using “assay buffer”: Assay Buffer: 0.1% BSA (Sigma #A3059) in HBSS (Sigma #H8264) with 25 mM HEPES, pH 7.4 and containing 0.5 mM IBMX (Sigma #17018).
Low protein binding 384-well plates (Greiner #781280) are used to perform eleven 1 in 5 serial dilutions of test samples which are made in assay buffer. All sample dilutions are made in duplicate.
A frozen cryo-vial of cells expressing the receptor of interest is thawed rapidly in a water-bath, transferred to pre-warmed assay buffer and spun at 240× g for 5 minutes. Cells are re-suspended in assay buffer at a batch-dependent optimized concentration (e.g. hGCGR cells at 2×10^5 cells/ml, hGLP-1R and hGIPR cells at 1×10^5 cells /ml).
From the dilution plate, a 5 μL replica is stamped onto a black shallow-well u-bottom 384-well plate (Corning #3676). To this, 5 μL cell suspension is added and the plates incubated at room temperature for 30 minutes.
cAMP levels are measured using a commercially available cAMP dynamic 2 HTRF kit (Cisbio, Cat #62AM4PEJ), following the two step protocol as per manufacturer's recommendations. In brief; anti-cAMP cryptate (donor fluorophore) and cAMP-d2 (acceptor fluorophore) are made up separately by diluting each 1/20 in conjugate & lysis buffer provided in the kit. 5 μL anti-cAMP cryptate is added to all wells of the assay plate, and 5 μL cAMP-d2 is added to all wells except non-specific binding (NSB) wells, to which conjugate and lysis buffer are added. Plates are incubated at room temperature for one hour and then read on an Envision (Perkin Elmer) using excitation wavelength of 320 nm and emission wavelengths of 620 nm & 665 nm. EC50 values of the synthetic peptides determined in cAMP assays are then determined.

Compound	EC50 (hGLP-1R) [nM]	EC50 (hGIP-R) [nM]	EC50 (hGluc-R) [nM]
CC[C@H](C)[C@H](NC(=O)[C@](C)(Cc1ccccc1)NC(=O)[C@H](CCC(=O)O)NC(=O)[C@H](CCCCN)NC(=O)[C@H](C)NC(=O)[C@H](C)NC(=O)[C@H](CCC(N)=O)NC(=O)CNC(=O)[C@H](CCC(=O)O)NC(=O)[C@H](CC(C)C)NC(=O)[C@](C)(Cc1ccccc1)NC(=O)[C@H](CO)NC(=O)[C@H](CO)NC(=O)[C@@H](NC(=O)[C@H](CC(=O)O)NC(=O)[C@H](CO)NC(=O)[C@@H](NC(=O)[C@](C)(Cc1ccccc1)NC(=O)[C@H](CO)NC(=O)CNC(=O)[C@H](CCC(=O)O)NC(=O)C(C)(C)NC(=O)[C@@H](N)Cc1c[nH]cn1)[C@@H](C)O)C(C)C)C(=O)N[C@@H](C)C(=O)N[C@@](C)(Cc1ccccc1)C(=O)N[C@@H](CC(C)C)C(=O)N[C@H](C(=O)N[C@@](C)(CCCCN)C(=O)NCC(=O)NCC(N)=O)C(C)C [SEQ ID NO: 45, H-(Aib)^2-EG-(S)^5-(α-MeF)^6-TSDV^10 SS-(α-MeF)^13-LE^15 GQAAK^20 E-(α-MeF)^22-IA-(α-MeF)^25 LV-(α-MeK)^28-G-(G)^30] (H-H[Aib]EGS[αMeF]TSDVSS[αMeF]LEGQAAKE[αMeF]IA[αMeF]LV[αMeK]GG-NH2)	0.0223	104	104
CCCCCCCCCCCCCCCC(=O)N[C@@H](CCC(=O)NCCCC[C@H](NC(=O)CNC(=O)[C@H](CO)NC(=O)[C@H](CO)NC(=O)CNC(=O)[C@H](CO)NC(=O)[C@H](CO)NC(=O)CNC(=O)[C@H](CO)NC(=O)[C@H](CO)NC(=O)CNC(=O)CNC(=O)[C@H](CCCCN)NC(=O)[C@@H](NC(=O)[C@H](CC(C)C)NC(=O)[C@](C)(Cc1ccccc1)NC(=O)[C@H](C)NC(=O)[C@@H](NC(=O)[C@](C)(Cc1ccccc1)NC(=O)[C@H](CCC(=O)O)NC(=O)[C@H](CCCCN)NC(=O)[C@H](C)NC(=O)[C@H](C)NC(=O)[C@H](CCC(N)=O)NC(=O)CNC(=O)[C@H](CCC(=O)O)NC(=O)[C@H](CC(C)C)NC(=O)[C@](C)(Cc1ccccc1)NC(=O)[C@H](CO)NC(=O)[C@H](CO)NC(=O)[C@@H](NC(=O)[C@H](CC(=O)O)NC(=O)[C@H](CO)NC(=O)[C@@H](NC(=O)[C@](C)(Cc1ccccc1)NC(=O)[C@H](CO)NC(=O)CNC(=O)[C@H](CCC(=O)O)NC(=O)C(C)(C)NC(=O)[C@@H](N)Cc1c[nH]cn1)[C@@H](C)O)C(C)C)[C@@H](C)CC)C(C)C)C(N)=O)C(=O)O [SEQ ID NO: 49, H-(Aib)^2-EG-(S)^5-(α-MeF)^6-TSDV^10 SS-(α-MeF)^13-LE^15 GQAAK^20 E-(α-MeF)^22-IA-(α-MeF)^25 LVKG-(G)^30-(SSG)3-K(Ε-γ-E-Palm)] (H-H[Aib]EGS[αMeF]TSDVSS[αMeF]LEGQAAKE[αMeF]IA[αMeF]LVKGGSSGSSGSSGK([γGlu-Palmitoyl])-NH2)	0.00929	40.9	75.9
CC[C@H](C)[C@H](NC(=O)[C@H](Cc1ccccc1)NC(=O)[C@H](CCC(=O)O)NC(=O)[C@H](CCCCN)NC(=O)[C@H](C)NC(=O)[C@H](C)NC(=O)[C@H](CCC(N)=O)NC(=O)CNC(=O)[C@H](CCC(=O)O)NC(=O)[C@H](CC(C)C)NC(=O)[C@H](Cc1ccc(O)cc1)NC(=O)[C@H](CO)NC(=O)[C@H](CO)NC(=O)[C@@H](NC(=O)[C@H](CC(=O)O)NC(=O)[C@H](CO)NC(=O)[C@@H](NC(=O)C(C)(C)NC(=O)[C@@H](NC(=O)CNC(=O)[C@H](CCC(=O)O)NC(=O)C(C)(C)NC(=O)[C@@H](N)Cc1c[nH]cn1)[C@@H](C)O)[C@@H](C)O)C(C)C)C(=O)N[C@@H](C)C(=O)N[C@@H](Cc1c[nH]c2ccccc12)C(=O)N[C@@H](CC(C)C)C(=O)N[C@H](C(=O)N[C@@H](CCCCN)C(=O)NCC(=O)N[C@@H](CCCNC(=N)N)C(N)=O)C(C)C [SEQ ID NO: 7, H-(Aib)^2-EGT^5-(Aib)^6-TSDV^10 SSYLE^15 GQAAK^20 EFIAW^25 LVKGR^30]	0.0728	151	151
CC[C@H](C)[C@H](NC(=O)[C@H](Cc1ccccc1)NC(=O)[C@H](CCC(=O)O)NC(=O)[C@H](CCCCN)NC(=O)[C@H](C)NC(=O)[C@H](C)NC(=O)[C@H](CCC(N)=O)NC(=O)CNC(=O)[C@H](CCC(=O)O)NC(=O)[C@H](CC(C)C)NC(=O)[C@H](Cc1ccc(O)cc1)NC(=O)[C@H](CO)NC(=O)[C@H](CO)NC(=O)[C@@H](NC(=O)[C@H](CC(=O)O)NC(=O)[C@H](CO)NC(=O)[C@@H](NC(=O)[C@H](Cc1ccccc1)NC(=O)[C@@H](NC(=O)CNC(=O)[C@H](CCC(=O)O)NC(=O)C(C)(C)NC(=O)[C@@H](N)Cc1c[nH]cn1)[C@@H](C)O)[C@@H](C)O)C(C)C)C(=O)N[C@@H](C)C(=O)N[C@@H](Cc1c[nH]c2ccccc12)C(=O)N[C@@H](CC(C)C)C(=O)N[C@H](C(=O)N[C@@](C)(CCCCN)C(=O)NCC(=O)N[C@@H](CCCNC(=N)N)C(N)=O)C(C)C [SEQ ID NO: 22, H-(Aib)^2-EGT^5 FTSDV^10 SSYLE^15 GQAAK^20 EFIAW^25 LV-(α-MeK)^28-GR^30]	0.019	91.4	91.4
CCCCCCCCCCCCCCCC(=O)NCCCC[C@H](NC(=O)CNC(=O)CNC(=O)[C@](C)(CCCCN)NC(=O)[C@@H](NC(=O)[C@H](CC(C)C)NC(=O)[C@](C)(Cc1ccccc1)NC(=O)[C@H](C)NC(=O)[C@@H](NC(=O)[C@](C)(Cc1ccccc1)NC(=O)[C@H](CCC(=O)O)NC(=O)[C@](C)(CCCCN)NC(=O)[C@H](C)NC(=O)[C@H](C)NC(=O)[C@H](CCC(N)=O)NC(=O)CNC(=O)[C@H](CCC(=O)O)NC(=O)[C@H](CC(C)C)NC(=O)[C@](C)(Cc1ccccc1)NC(=O)[C@H](CO)NC(=O)[C@H](CO)NC(=O)[C@@H](NC(=O)[C@H](CC(=O)O)NC(=O)[C@H](CO)NC(=O)[C@@H](NC(=O)[C@](C)(Cc1ccccc1)NC(=O)[C@H](CO)NC(=O)CNC(=O)[C@H](CCC(=O)O)NC(=O)C(C)(C)NC(=O)[C@@H](N)Cc1c[nH]cn1)[C@@H](C)O)C(C)C)[C@@H](C)CC)C(C)C)C(N)=O [SEQ ID NO: 47, H-(Aib)^2-EG-(S)^5-(α-MeF)^6-TSDV^10 SS-(α-MeF)^13-LE^15 GQAA-(α-MeK)^20 E-(α-MeF)^22-IA-(α-MeF)^25 LV-(α-MeK)^28-G-(G)^30-K(Ε-Palm)] (H-H[Aib]EGS[αMeF]TSDVSS[αMeF]LEGQAA[αMeK]E[αMeF]IA[αMeF]LV[αMeK]GGK(Palmitoyl)-NH2)	0.105	92.7	92.7
CC[C@H](C)[C@H](NC(=O)[C@@H](NC(=O)[C@H](CCC(=O)O)NC(=O)[C@H](CCCCN)NC(=O)[C@H](C)NC(=O)[C@H](C)NC(=O)[C@H](CCC(N)=O)NC(=O)CNC(=O)[C@H](CCC(=O)O)NC(=O)[C@H](CC(C)C)NC(=O)[C@@H](NC(=O)[C@H](CO)NC(=O)[C@H](CO)NC(=O)[C@@H](NC(=O)[C@H](CC(=O)O)NC(=O)[C@H](CO)NC(=O)[C@@H](NC(=O)[C@@H](NC(=O)[C@@H](NC(=O)CNC(=O)[C@H](CCC(=O)O)NC(=O)C(C)(C)NC(=O)[C@@H](N)Cc1c[nH]cn1)[C@@H](C)O)C(C)(C)c1ccccc1)[C@@H](C)O)C(C)C)C(C)(C)c1ccccc1)C(C)(C)c1ccccc1)C(=O)N[C@@H](C)C(=O)N[C@H](C(=O)N[C@@H](CC(C)C)C(=O)N[C@H](C(=O)N[C@@H](CCCCN)C(=O)NCC(=O)N[C@@H](CCCNC(=N)N)C(N)=O)C(C)C)C(C)(C)c1ccccc1 [SEQ ID NO: 62, H-(Aib)^2-EGT^5-(β, β-di-Me-Phe)^6-TSDV^10 SS-(β, β-di-Me-Phe)^13-LE^15 GQAAK^20 E-(β, β-di-Me-Phe)^22-IA-(β,β-di-Me-Phe)^25 LVKGR^30] (H-H[Aib]EGT[X1]TSDVSS[X1]LEGQAAKE[X1]IA[X1]LVKGR-NH2)	98.9	98.9	98.9
